Data published in patent publication US20120232070A1, “Use of Indole Derivatives as Nurr-1 Activators for the Application Thereof as a Medicament for the Treatment of Parkinson's Disease” (Laboratoires Fournier SA, priority 2009, published 2012).

Key:
[1] = biological target: hNurr1_RXRγFL (NURR1/RXRγ heterodimer) (Homo sapiens, UniProt P43354+P48443); test: Transactivation assay in Cos-7 cells, NURR-1-Gal4 / RXRγ, luciferase reporter; assay type: cell-based; conditions: for Emax: COS-7, read-out: hNurr1_RXRγFL Eff (%), efficacy in % relative to the reference XCT0135908 at 2·10^−5 M (=100%); for EC50: Cos-7 cells, overnight incubation
hNurr1_RXRγFL (NURR1/RXRγ heterodimer), sequence (P43354 328-598): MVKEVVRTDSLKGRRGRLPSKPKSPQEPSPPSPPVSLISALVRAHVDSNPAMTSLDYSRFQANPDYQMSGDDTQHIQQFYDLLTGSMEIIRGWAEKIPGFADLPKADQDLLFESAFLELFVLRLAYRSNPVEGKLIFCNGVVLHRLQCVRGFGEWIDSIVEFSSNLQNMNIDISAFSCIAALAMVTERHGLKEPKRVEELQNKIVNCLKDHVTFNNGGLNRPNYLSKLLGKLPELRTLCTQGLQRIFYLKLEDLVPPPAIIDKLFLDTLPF
hNurr1_RXRγFL (NURR1/RXRγ heterodimer), sequence (P48443 whole entry, the tested form may be a part): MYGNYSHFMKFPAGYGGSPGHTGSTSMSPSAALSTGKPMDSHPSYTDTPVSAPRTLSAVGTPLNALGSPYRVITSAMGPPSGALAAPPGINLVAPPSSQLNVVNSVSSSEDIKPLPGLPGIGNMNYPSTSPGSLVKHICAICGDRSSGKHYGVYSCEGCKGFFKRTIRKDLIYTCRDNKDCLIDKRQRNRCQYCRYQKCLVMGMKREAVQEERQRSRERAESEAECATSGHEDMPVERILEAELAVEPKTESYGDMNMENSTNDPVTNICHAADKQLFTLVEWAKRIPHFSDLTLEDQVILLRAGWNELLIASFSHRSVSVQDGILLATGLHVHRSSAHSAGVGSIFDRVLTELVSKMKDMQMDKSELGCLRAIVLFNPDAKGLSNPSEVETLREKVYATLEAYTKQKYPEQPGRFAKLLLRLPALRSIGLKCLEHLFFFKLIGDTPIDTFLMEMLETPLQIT
Experimental: (§1) First, the capacity of the compounds according to the invention for acting as an activator of the heterodimers formed by the NURR-1 nuclear receptor and the RXR nuclear receptors was measured by an in vitro assay.
(§2) A transactivation assay was used as a primary screening assay. Cos-7 cells were co-transfected with a plasmid expressing a chimera of the human receptor NURR-1-Gal4, a plasmid expressing the human receptor RXR (RXRα or RXRγ receptor) and a reporter plasmid 5Gal4pGL3-TK-Luc. The transfections were performed by means of a chemical agent (Jet PEI).
(§3) The transfected cells were distributed in 384-well plates and left resting for 24 hours.
(§4) After 24 hours, the culture medium was changed. The products according to the invention were added (final concentration between 10^−4 and 3·10^−10 M) to the culture medium. After overnight incubation, luciferase expression was measured after addition of “SteadyGlo” according to the manufacturer's instructions (Promega).
(§5) 4-[[6-Methyl-2-phenyl-5-(2-prop enyl)-4-pyrimidinyl]amino]-benzoic acid (called XCT0135908, which was described in the article by Wallen-Mackenzie et al. published in Genes & Development 17, pages 3036-3047) at 2·10^−5 M (RXR agonist) was used as reference.
(§6) The levels of induction (designated by “efficiency”) were calculated relative to the baseline activity of each heterodimer. The results were expressed as a percentage of the level of induction relative to the level of induction obtained with the reference (the level of induction of the reference is arbitrarily taken to be 100%).

[2] = biological target: hNurr1_RXRαFL (NURR1/RXRα heterodimer) (Homo sapiens, UniProt P19793+P43354); test: Transactivation assay in Cos-7 cells, NURR-1-Gal4 / RXRα, luciferase reporter; assay type: cell-based; conditions: for Emax: COS-7, read-out: hNurr1_RXRαFL Eff (%), efficacy in % relative to the reference XCT0135908 at 2·10^−5 M (=100%); for EC50: Cos-7 cells, overnight incubation
hNurr1_RXRαFL (NURR1/RXRα heterodimer), sequence (P19793 whole entry, the tested form may be a part): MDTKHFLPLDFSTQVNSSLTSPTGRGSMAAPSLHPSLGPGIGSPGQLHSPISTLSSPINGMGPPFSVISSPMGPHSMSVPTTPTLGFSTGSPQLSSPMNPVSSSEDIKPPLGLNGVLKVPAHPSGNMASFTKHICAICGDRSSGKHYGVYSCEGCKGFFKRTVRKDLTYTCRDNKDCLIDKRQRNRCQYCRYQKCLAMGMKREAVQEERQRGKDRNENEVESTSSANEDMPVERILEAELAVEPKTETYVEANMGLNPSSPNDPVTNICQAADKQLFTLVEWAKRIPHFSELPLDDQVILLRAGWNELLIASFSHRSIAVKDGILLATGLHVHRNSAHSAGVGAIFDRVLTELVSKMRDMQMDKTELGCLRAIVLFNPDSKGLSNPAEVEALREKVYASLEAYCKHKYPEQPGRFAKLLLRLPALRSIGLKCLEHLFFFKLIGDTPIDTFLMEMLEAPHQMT
hNurr1_RXRαFL (NURR1/RXRα heterodimer), sequence (P43354 328-598): as the sequence (P43354 328-598) above
Experimental: as §1, §2, §3, §4, §5, §6

[3] = efficacy in % relative to the reference XCT0135908 at 2·10^−5 M (=100%)

Row | Compound | Emax [1] [%] | EC50 [1] [nM] | Emax [2] [%] | EC50 [2] [nM] | hNurr1_RXRγFL Eff (%) [1, 3] [%] | hNurr1_RXRαFL Eff (%) [2, 3] [%]
1 | Cc1cc(Cc2cc3cc(C(F)(F)F)ccc3n2S(=O)(=O)c2cccc(C(C)(C)C)c2)c(F)cc1C(=O)O [Example 196, 4-[[1-[[3-(1,1-dimethylethyl)phenyl]sulfonyl]-5-trifluoromethyl-1H-indol-2-yl]methyl]-5-fluoro-2-methyl-benzoic acid] | 91 | 479 | 90 | 240 | – | –
2 | CCC(C)(C)c1ccc(S(=O)(=O)n2c(Cc3ccc(C(=O)O)cc3)cc3cc(C(F)(F)F)ccc32)cc1 [Example 12, 4-[[1-[[4-(1,1-dimethylpropyl)phenyl]sulfonyl]-5-(trifluoromethyl)-1H-indol-2-yl]methyl]benzoic acid] | 45 | 148 | 54 | 113 | – | –
3 | O=C(O)c1ccc(Cc2cc3cc(Cl)ccc3n2S(=O)(=O)c2cccc(C(F)(F)F)c2)cc1 [Example 28, 4-[[5-chloro-1-[[3-(trifluoromethyl)phenyl]sulfonyl]-1H-indol-2-yl]-methyl]benzoic acid] | 67 | 443 | 78 | 332 | – | –
4 | CC(C)(C)c1cccc(S(=O)(=O)n2c(Cc3ccc(S(N)(=O)=O)cc3)cc3cc(C(F)(F)F)ccc32)c1 [Example 198, 4-[[1-[[3-(1,1-dimethylethyl)-phenyl]sulfonyl]-5-trifluoromethyl-1H-indol-2-yl]methyl]-benzenesulfonamide] | 86 | > 10000 | 84 | 7940 | – | –
5 | Cc1cccc(S(=O)(=O)n2c(Cc3ccc(C(=O)O)cc3)cc3cc(Cl)ccc32)c1 [Example 161, 4-[[5-chloro-1-[(3-methylphenyl)sulfonyl]-1H-indol-2-yl]methyl]benzoic acid] | 40 | 584 | 59 | 460 | – | –
6 | O=C(O)c1ccc(Cc2cc3cc(Cl)ccc3n2S(=O)(=O)c2ccc3c(c2)OCCCO3)cc1 [Example 178] | 36 | 1200 | 45 | 1030 | – | –
7 | Cc1cc(S(=O)(=O)n2c(Cc3ccc(C(=O)O)cc3)cc3cc(C(F)(F)F)ccc32)ccc1Cl [Example 121, 4-[[1-[4-chloro-3-methyl-phenylsulfonyl]-5-(trifluoromethyl)-1H-indol-2-yl]methyl]benzoic acid] | 56 | 433 | 65 | 192 | – | –
8 | O=C(O)c1ccc(Cc2cc3cc(C(F)(F)F)ccc3n2S(=O)(=O)c2ccc(Cl)cc2)cc1 [Example 136, 4-[[1-[4-chloro-phenylsulfonyl]-5-(trifluoromethyl)-1H-indol-2-yl]methyl]benzoic acid] | 25 | > 10000 | 35 | 275 | – | –
9 | O=C(O)c1ccc(Cc2cc3cc(C(F)(F)F)ccc3n2S(=O)(=O)c2ccc3ccccc3c2)cc1 [Example 25, 4-[[1-(2-naphthalenylsulfonyl)-5-(trifluoromethyl)-1H-indol-2-yl]methyl]benzoic acid] | 33 | 864 | 47 | 496 | – | –
10 | CC(C)(C)c1cccc(S(=O)(=O)n2c(Cc3ccc(C(=O)O)c(Cl)c3)cc3cc(C(F)(F)F)ccc32)c1 [Example 206, 4-[[1-[[3-(1,1-dimethylethyl)-phenyl]sulfonyl]-5-trifluoromethyl-1H-indol-2-yl]methyl]-2-chlorobenzoic acid] | 85 | 363 | 71 | 174 | – | –
11 | O=C(O)c1ccc(Cc2cc3cc(Cl)ccc3n2S(=O)(=O)c2ccc3c(c2)OCCO3)cc1 [Example 157, 4-[[1-[2,3-dihydro-benzo[1,4]dioxin-6-sulfonyl]-5-(chloro)-1H-indol-2-yl]methyl]benzoic acid] | 64 | 838 | 67 | 267 | – | –
12 | CC1(C)COc2ccc(S(=O)(=O)n3c(Cc4ccc(C(=O)O)cc4)cc4cc(Cl)ccc43)cc21 [Example 183] | – | 95 | – | 47 | 91 | 80
13 | CS(=O)(=O)n1c(Cc2ccc(C(=O)O)cc2)cc2cc(Cl)ccc21 [Example 181, 4-[[5-chloro-1-(methylsulfonyl)-1H-indol-2-yl]methyl]benzoic acid] | 152 | 4070 | 111 | 1360 | – | –
14 | CC(C)(C)c1cccc(S(=O)(=O)n2c(Cc3ccc(C(=O)O)cc3)cc3ccccc32)c1 [Example 195, 4-[[1-[[3-(1,1-dimethylethyl)phenyl]sulfonyl]-1H-indol-2-yl]methyl]-benzoic acid] | 56 | 1170 | 57 | 629 | – | –
15 | CC(C)Oc1ccc(S(=O)(=O)n2c(Cc3ccc(C(=O)O)cc3)cc3cc(Cl)ccc32)cc1 [Example 162, 4-[[1-[4-isopropoxy-phenylsulfonyl]-5-(chloro)-1H-indol-2-yl]methyl]benzoic acid] | 40 | 1550 | 56 | 692 | – | –
16 | CC(C)(C)c1cccc(S(=O)(=O)n2c(Cc3ccc(C(=O)NS(=O)(=O)c4ccccc4)cc3)cc3cc(C(F)(F)F)ccc32)c1 [Example 229, N-[4-[[1-[[3-(1,1-dimethylethyl)phenyl]sulfonyl]-5-(trifluoromethyl)-1H-indol-2-yl]methyl]benzoyl]-benzenesulfonamide] | 70 | 303 | 60 | 157 | – | –
17 | CC(C)(C)c1cccc(S(=O)(=O)n2c(Cc3nc(C(=O)O)cs3)cc3cc(C(F)(F)F)ccc32)c1 [Example 89, 2-[[1-[[3-(1,1-dimethylethyl)-phenyl]sulfonyl]-5-trifluoromethyl-1H-indol-2-yl]methyl]-thiazole-4-carboxylic acid] | 62 | 611 | 77 | 265 | – | –
18 | CC(C)(C)c1cccc(S(=O)(=O)n2c(Cc3ccc(C(=O)O)cc3)cc3c(Cl)c(Cl)ccc32)c1 [Example 119, 4-[[1-[[3-(1,1-dimethylethyl)phenyl]sulfonyl]-4-(chloro)-5-(chloro)-1H-indol-2-yl]methyl]benzoic acid] | 82 | 266 | 71 | 65 | – | –
19 | COc1ccc(S(=O)(=O)n2c(Cc3ccc(C(=O)O)cc3)cc3cc(C(F)(F)F)ccc32)cn1 [Example 120, 4-[[1-[(6-methoxy-3-pyridinyl)sulfonyl]-5-(trifluoromethyl)-1H-indol-2-yl]methyl]benzoic acid] | 49 | 661 | 68 | 202 | – | –
20 | O=C(O)c1ccc(Cc2cc3cc(Cl)ccc3n2S(=O)(=O)c2cccc(F)c2)cc1 [Example 154, 4-[[1-[3-fluoro-phenylsulfonyl]-5-(chloro)-1H-indol-2-yl]methyl]benzoic acid] | 66 | 1360 | 68 | 472 | – | –
21 | Cc1c(Cc2ccc(C(=O)O)cc2)n(S(=O)(=O)c2cccc(C(C)(C)C)c2)c2ccc(C(F)(F)F)cc12 [Example 189, 4-[[1-[[3-(1,1-dimethylethyl)phenyl]sulfonyl]-3-methyl-5-(trifluoromethyl)-1H-indol-2-yl]methyl]-benzoic acid] | 90 | 263 | 83 | 120 | – | –
22 | O=C(O)c1ccc(F)c(Cc2cc3cc(C(F)(F)F)ccc3n2S(=O)(=O)c2ccc3c(c2)OCCO3)c1 [Example 214, 3-[[1-[(2,3-dihydro-benzo[1,4]dioxin-6-yl)sulfonyl]-5-trifluoromethyl-1H-indol-2-yl]methyl]-4-fluorobenzoic acid] | 55 | 804 | 75 | 681 | – | –
23 | O=C(O)c1ccc(Cc2cc3cc(C(F)(F)F)ccc3n2S(=O)(=O)c2ccc3c(c2)OCCO3)cc1 [Example 22, 4-[[1-[(2,3-dihydro-1,4-benzodioxin-6-yl)sulfonyl]-5-(trifluoromethyl)-1H-indol-2-yl]methyl]benzoic acid] | 43 | 346 | 45 | 207 | – | –
24 | COc1ccc(S(=O)(=O)n2c(Cc3ccc(C(=O)O)cc3)cc3cc(Cl)ccc32)cc1 [Example 165, 4-[[1-[4-methoxy-phenylsulfonyl]-5-(chloro)-1H-indol-2-yl]methyl]benzoic acid] | 37 | 2930 | 51 | 1140 | – | –
25 | O=C(O)c1ccc(Cc2cc3cc(C(F)(F)F)ccc3n2S(=O)(=O)c2ccc(Oc3ccccc3)nc2)cc1 [Example 130, 4-[[1-[(6-phenoxy-3-pyridinyl)sulfonyl]-5-(trifluoromethyl)-1H-indol-2-yl]methyl]benzoic acid] | 22 | 1700 | 30 | 347 | – | –
